Experimental data taken from patent publication US8933232B2, “1,3,4-oxadiazole and 1,3,4-thiadiazole beta-lactamase inhibitors” (priority 2012, dated 2015).
Where a name gives a salt, the structure may show the parent alone.

System: bacterial strains that express KPC β-lactamases
Experiment: Synergy MIC / standard BLI potentiation MIC assay against strains expressing KPC β-lactamases
Type: cell-based
Conditions: in the presence of a β-lactam; comparator Avibactam
Procedure: The experimental protocol was performed according to Clinical and Laboratory Standards Institute (CLSI) guidelines with modifications as described below (CLSI guidelines can be derived from the CLSI document M07-A9 published in January 2012: “Methods for Dilution Antimicrobial Susceptibility Tests for Bacteria That Grow Aerobically; Approved Standard-Ninth Edition”).
To prepare for MIC testing, frozen glycerol stocks of clinical isolates (Klebsiella pneumoniae, Eschericia coli, Enterobacter spp, Citrobacter spp, or Pseudomonas aeruginosa) were used to streak for isolated colonies on rich, non-selective, tryptic soy agar containing 5% sheep's blood (TSAB). Frozen glycerol stocks of laboratory engineered, isogenic E. coli strains, which contain cloned β-lactamase expressing plasmids were used to streak for isolated colonies on rich, selective LB agar supplemented with 25 μg/mL tetracycline to maintain the plasmid. All strains were incubated at 37° C. for 18-24 hrs.
On the day of testing, primary cultures were started by scraping off 5-10 colonies from the TSAB plates containing clinical strains or the tetracycline supplemented LB plates containing engineered strains. The clinical strain material was suspended in ˜5 mL of cation adjusted Mueller Hinton Broth (CAMHB) in 14 mL culture tubes. The engineered strain material was suspended in CAMHB (supplemented with 25 μg/mL tetracycline) in 14 mL culture tubes. All strains were incubated at 37° C. with aeration (200 rpm) for ˜2 hrs until the optical density at 600 nm (OD600) was >0.1.
The two compound components of the assay were each diluted in CAMHB and added to the 96-well broth microdilution assay plates. 50 μL of the β-lactam was added to each well of the assay plate in 2-fold dilutions with final concentrations ranging from 128 to 0.13 μg/mL. 25 μL, of the BLI compound was added to all wells in the broth microdilution plates at a final concentration of 4 μg/mL. Inoculum cultures were prepared by standardizing the primary cultures to OD600=0.1 and then adding 20 μL of the adjusted primary culture per 1 mL CAMHB for clinical strains or CAMHB (supplemented with tetracycline at 100 μg/mL) for engineered strains, so that the final inoculum density was ˜10^5 colony forming units per milliliter. Diluted inoculum cultures were used to inoculate 25 μl, per well in 96-well broth microdilution assay plates. The final volume of each well was 100 μL and contained a β-lactam at different concentrations, a BLIcompound at 4 μg/mL concentration, the bacterial culture at an OD600 of approximately 0.001 and when necessary tetracycline at 25 μg/mL.
Plates were incubated for 18-20 hours at 37° C. with aeration (200 rpm). Following incubation, growth was confirmed visually placing plates over a viewing apparatus (stand with a mirror underneath) and then OD600 was measured using a SpectraMax 340PC384 plate reader (Molecular Devices, Sunnyvale, Calif.). Growth was defined as turbidity that could be detected with the naked eye or achieving minimum OD600 of 0.1. MIC values were defined as the lowest concentration producing no visible turbidity.
The synergy MIC (sMIC) assay determines the concentration of the BLI required to potentiate the activity of a fixed concentration of a β-lactam antibiotic against β-lactamase producing bacterial strains. The experimental protocol was performed according to Clinical and Laboratory Standards Institute (CLSI) guidelines with modifications as described below (CLSI guidelines can be derived from the CLSI document M07-A9 published in January 2012: “Methods for Dilution Antimicrobial Susceptibility Tests for Bacteria That Grow Aerobically; Approved Standard-Ninth Edition”). […]

SMILES	more active than Avibactam for at least one bacterial strain that expresses KPC β-lactamase and/or better spectrum of activity against KPC strains
N=C(N)NC[C@@H](O)c1nnc([C@@H]2CC[C@@H]3CN2C(=O)N3OS(=O)(=O)O)o1 [Compound 731, (2S,5R)-2-(5-((R)-2-guanidino-1-hydroxyethyl)-1,3,4-oxadiazol-2-yl)-7-oxo-1,6-diazabicyclo[3.2.1]octan-6-yl hydrogen sulfate]	more active than Avibactam
N=C(N)NC[C@H](O)c1nnc([C@@H]2CC[C@@H]3CN2C(=O)N3OS(=O)(=O)O)o1 [Compound 732, (2S,5R)-2-(5-((S)-2-guanidino-1-hydroxyethyl)-1,3,4-oxadiazol-2-yl)-7-oxo-1,6-diazabicyclo[3.2.1]octan-6-yl hydrogen sulfate]	more active than Avibactam
CNCCCc1nnc([C@@H]2CC[C@@H]3CN2C(=O)N3OS(=O)(=O)O)o1 [Compound 734, 2S,5R)-2-(5-(3-(methylamino)propyl)-1,3,4-oxadiazol-2-yl)-7-oxo-1,6-diazabicyclo[3.2.1]octan-6-yl hydrogen sulfate]	more active than Avibactam
NCCCCc1nnc([C@@H]2CC[C@@H]3CN2C(=O)N3OS(=O)(=O)O)o1 [Compound 735, (2S,5R)-2-(5-(4-aminobutyl)-1,3,4-oxadiazol-2-yl)-7-oxo-1,6-diazabicyclo[3.2.1]octan-6-yl hydrogen sulfate]	more active than Avibactam
O=C1N2C[C@@H](CC[C@H]2c2nnc(CCNCCO)o2)N1OS(=O)(=O)O [Compound 736, (2S,5R)-2-(5-(2-((2-hydroxyethyl)amino)ethyl)-1,3,4-oxadiazol-2-yl)-7-oxo-1,6-diazabicyclo[3.2.1]octan-6-yl hydrogen sulfate]	more active than Avibactam
CC(C)(N)Cc1nnc([C@@H]2CC[C@@H]3CN2C(=O)N3OS(=O)(=O)O)o1 [Compound 737, (2S,5R)-2-(5-(2-amino-2-methylpropyl)-1,3,4-oxadiazol-2-yl)-7-oxo-1,6-diazabicyclo[3.2.1]octan-6-yl hydrogen sulfate]	more active than Avibactam
N=C(N)Nc1nnc([C@@H]2CC[C@@H]3CN2C(=O)N3OS(=O)(=O)O)o1 [Compound 738, (2S,5R)-2-(5-guanidino-1,3,4-oxadiazol-2-yl)-7-oxo-1,6-diazabicyclo[3.2.1]octan-6-yl hydrogen sulfate]	more active than Avibactam
N=C(N)NC1(Cc2nnc([C@@H]3CC[C@@H]4CN3C(=O)N4OS(=O)(=O)O)o2)CC1 [Compound 739, (2S,5R)-2-(5-((1-guanidinocyclopropyl)methyl)-1,3,4-oxadiazol-2-yl)-7-oxo-1,6-diazabicyclo[3.2.1]octan-6-yl hydrogen sulfate]	more active than Avibactam
O=C1N2C[C@@H](CC[C@H]2c2nnc([C@H]3[C@@H]4CNC[C@@H]43)o2)N1OS(=O)(=O)O [Compound 740, (2S,5R)-2-(5-(3-azabicyclo[3.1.0]hexan-6-yl)-1,3,4-oxadiazol-2-yl)-7-oxo-1,6-diazabicyclo[3.2.1]octan-6-yl hydrogen sulfate]	more active than Avibactam
N=C(N)N1CC(Cc2nnc([C@@H]3CC[C@@H]4CN3C(=O)N4OS(=O)(=O)O)o2)C1 [Compound 741, (2S,5R)-2-(5-((1-carbamimidoylazetidin-3-yl)methyl)-1,3,4-oxadiazol-2-yl)-7-oxo-1,6-diazabicyclo[3.2.1]octan-6-yl hydrogen sulfate]	more active than Avibactam
O=C1N2C[C@@H](CC[C@H]2c2nnc(CCC3CNC3)o2)N1OS(=O)(=O)O [Compound 742, (2S,5R)-2-(5-(2-(azetidin-3-yl)ethyl)-1,3,4-oxadiazol-2-yl)-7-oxo-1,6-diazabicyclo[3.2.1]octan-6-yl hydrogen sulfate]	more active than Avibactam
O=C1N2C[C@@H](CC[C@H]2c2nnc(CCCC3CNC3)o2)N1OS(=O)(=O)O [Compound 743, (2S,5R)-2-(5-(3-(azetidin-3-yl)propyl)-1,3,4-oxadiazol-2-yl)-7-oxo-1,6-diazabicyclo[3.2.1]octan-6-yl hydrogen sulfate]	more active than Avibactam
O=C1N2C[C@@H](CC[C@H]2c2nnc(COC3CNC3)o2)N1OS(=O)(=O)O [Compound 744, (2S,5R)-2-(5-((azetidin-3-yloxy)methyl)-1,3,4-oxadiazol-2-yl)-7-oxo-1,6-diazabicyclo[3.2.1]octan-6-yl hydrogen sulfate]	more active than Avibactam
O=C1N2C[C@@H](CC[C@H]2c2nnc(CCNC3CNC3)o2)N1OS(=O)(=O)O [Compound 745, (2S,5R)-2-(5-(2-(azetidin-3-ylamino)ethyl)-1,3,4-oxadiazol-2-yl)-7-oxo-1,6-diazabicyclo[3.2.1]octan-6-yl hydrogen sulfate]	more active than Avibactam
N=C(N)N1CC(NCc2nnc([C@@H]3CC[C@@H]4CN3C(=O)N4OS(=O)(=O)O)o2)C1 [Compound 746, (2S,5R)-2-(5-(((1-carbamimidoylazetidin-3-yl)amino)methyl)-1,3,4-oxadiazol-2-yl)-7-oxo-1,6-diazabicyclo[3.2.1]octan-6-yl hydrogen sulfate]	more active than Avibactam
N=C(N)N[C@H]1C[C@@H](c2nnc([C@@H]3CC[C@@H]4CN3C(=O)N4OS(=O)(=O)O)o2)C1 [Compound 749, 2S,5R)-2-(5-((1s,3R)-3-guanidinocyclobutyl)-1,3,4-oxadiazol-2-yl)-7-oxo-1,6-diazabicyclo[3.2.1]octan-6-yl hydrogen sulfate]	more active than Avibactam
O=C1N2C[C@@H](CC[C@H]2c2nnc(C3CC4(CNC4)C3)o2)N1OS(=O)(=O)O [Compound 750, (2S,5R)-2-(5-(2-azaspiro[3.3]heptan-6-yl)-1,3,4-oxadiazol-2-yl)-7-oxo-1,6-diazabicyclo[3.2.1]octan-6-yl hydrogen sulfate]	more active than Avibactam
N[C@H]1C[C@H](Cc2nnc([C@@H]3CC[C@@H]4CN3C(=O)N4OS(=O)(=O)O)o2)C1 [Compound 751, (2S,5R)-2-(5-(((1r,3S)-3-aminocyclobutyl)methyl)-1,3,4-oxadiazol-2-yl)-7-oxo-1,6-diazabicyclo[3.2.1]octan-6-yl hydrogen sulfate]	more active than Avibactam
N=C(N)NC1CC(Cc2nnc([C@@H]3CC[C@@H]4CN3C(=O)N4OS(=O)(=O)O)o2)C1 (stereo partly drawn) [Compound 752, (2S,5R)-2-(5-(β-guanidinocyclobutyl)methyl)-1,3,4-oxadiazol-2-yl)-7-oxo-1,6-diazabicyclo[3.2.1]octan-6-yl hydrogen sulfate]	more active than Avibactam
N[C@H]1C[C@H](CCc2nnc([C@@H]3CC[C@@H]4CN3C(=O)N4OS(=O)(=O)O)o2)C1 [Compound 753, (2S,5R)-2-(5-(2-((1r,3R)-3-aminocyclobutyl)ethyl)-1,3,4-oxadiazol-2-yl)-7-oxo-1,6-diazabicyclo[3.2.1]octan-6-yl hydrogen sulfate]	more active than Avibactam
